According to patent EP0325131A2, “Pyrimidine derivatives as performance stimulating agents” (BAYER AG, priority 1988, dated 1989):

Test system: Weibliche Laborratten
Assay: Rat feeding trial (relative weight gain versus untreated control)
Format: in vivo, Laborratten vom Typ SPF Wistar
Conditions: female SPF Wistar rats 90-110 g, 100 ppm active substance in feed ad lib, 13 days, relative to untreated control
Description: Weibliche Laborratten 90-110 g schwer vom Typ SPF Wistar (Züchtung Hagemann) werden ad lib mit Standard Rattenfutter, das mit der gewünschten Menge Wirkstoff versetzt ist, gefüttert. Jeder Versuchsansatz wird mit Futter der identischen Charge durchgeführt, so daß Unterschiede in der Zusammensetzung des Futters die Vergleichbarkeit der Ergebnisse nicht beeinträchtigen können.
Die Ratten erhalten Wasser ad lib.
Jeweils 12 Ratten bilden eine Versuchsgruppe und werden mit Futter, das mit der gewünschten Menge Wirkstoff versetzt ist, gefüttert. Eine Kontrollgruppe erhält Futter ohne Wirkstoff. Die Versuchsgruppen werden so zusammengestellt, daß das durchschnittliche Körpergewicht sowie die Streuung in den Körpergewichten der Ratten in jeder Versuchsgruppe gleich ist, so daß eine Vergleichbarkeit der Versuchsgruppen untereinander gewährleistet ist.
Die Tiere werden vor Versuchsbeginn 2 Tage an die neuen Haltungsbedingungen adaptiert, während dieser Zeit wird Futter ohne Wirkstoffzusatz gegeben. Danach erhalten die Tiere 13 Tage lang Futter, das Wirkstoff enthält. Es wird die relative Gewichtszunahme im Verhältnis zur unbehandelten Kontrolle bestimmt.

With `CC(C)(C)NCC(O)c1cnc(N)nc1` (stereo not shown) [compound 1, 1-(2-Amino-5-pyrimidinyl)-2-(tert.-butylamino)-ethanol] as the compound, how does the “relative Gewichtszunahme” value read?
Its value is 30%.
